Test results reported in ChEMBL document CHEMBL3045186, “Assessments of crop losses in rice ecosystems due to stem borer damage (Lepidoptera: Pyralidae)” (2006).

Tests used:
Assay type in all cases: functional
[1] = tested on: Lepidoptera; assay: Insecticidal activity against Lepidoptera infected rice plant assessed as white earhead damage at 1 kg ai/ha applied as granules on 30 to 50 days post planting (reference value: 12.17%)
[2] = tested on: Lepidoptera; assay: Insecticidal activity against Lepidoptera infected rice plant assessed as dead heart damage at 1 kg ai/ha applied as granules on 30 to 50 days post planting (reference value: 11.87%)
[3] = tested on: Lepidoptera; assay: Insecticidal activity against Lepidoptera infected rice plant assessed as increase in grain yield at 1 kg ai/ha applied as granules on 30 to 50 days post planting (reference value: 28%)
[4] = tested on: Lepidoptera; assay: Insecticidal activity against Lepidoptera infected rice plant assessed as increase in grain yield at 0.75 kg ai/ha applied as emulsified concentrates through foliar spray on 30 to 50 days post planting (reference value: 28%)
[5] = tested on: Lepidoptera; assay: Insecticidal activity against Lepidoptera infected rice plant assessed as white earhead damage at 0.75 kg ai/ha applied as emulsified concentrates through foliar spray on 30 to 50 days post planting (reference value: 12.17%)
[6] = tested on: Lepidoptera; assay: Insecticidal activity against Lepidoptera infected rice plant assessed as dead heart damage at 0.75 kg ai/ha applied as emulsified concentrates through foliar spray on 30 to 50 days post planting (reference value: 11.87%)
[7] = tested on: Lepidoptera; assay: Insecticidal activity against Lepidoptera infected rice plant assessed as increase in grain yield (reference value: 28%)
[8] = tested on: Lepidoptera; assay: Insecticidal activity against Lepidoptera infected rice plant assessed as white earhead damage (reference value: 12.17%)
[9] = tested on: Lepidoptera; assay: Insecticidal activity against Lepidoptera infected rice plant assessed as dead heart damage (reference value: 11.87%)

| Compound | Activity [1] [%] | Activity [2] [%] | Crop_yield [3] [%] | Crop_yield [4] [%] | Activity [5] [%] | Activity [6] [%] | Crop_yield [7] [%] | Activity [8] [%] | Activity [9] [%] |
| --- | --- | --- | --- | --- | --- | --- | --- | --- | --- |
| CNC(=O)Oc1cccc2c1OC(C)(C)C2 [CARBOFURAN] | 5.14 | 4.15 | 35 |  |  |  |  |  |  |
| CCOP(=S)(OCC)Oc1nc(Cl)c(Cl)cc1Cl [CHLORPYRIFOS] | 6.18 | 5.39 | 37 | 36 | 6.72 | 7.26 |  |  |  |
| CCOP(=O)(/N=C1\SCC(C)S1)OCC (stereo unspecified) [CYTROLANE] | 3.14 | 3.63 | 32 |  |  |  |  |  |  |
| CCOP(=S)(OCC)Oc1cc(C)nc(C(C)C)n1 [DIMPYLATE] |  |  |  | 42 | 3.19 | 8.14 |  |  |  |
| CNC(=O)/C=C(\C)OP(=O)(OC)OC [MONOCROTOPHOS] |  |  |  |  |  |  | 37 | 6.31 | 4.76 |
| CCOP(=S)(OCC)Oc1cnc2ccccc2n1 [QUINALPHOS] |  |  |  |  |  |  | 28 | 6.33 | 4.12 |
